In US6849598B1, “Therapeutic compositions comprising bactericidal/permeability-increasing (BPI) protein products” (XOMA, priority 1995, dated 2005):
In brackets after ≈: the same amount, converted by molar mass. Where two headings read alike, the source gives them in different places.

Assays:
Format in all cases: cell-based
E. faecium = assay: Antibiotic susceptibility (MIC, Sensititre Trays) with rBPI21 poloxamer formulations; conditions: for MIC: Enterococcus faecium, read-out: Minimum Inhibitory Concentration; as to susceptibility interpretation of MIC (superscript): key: clinically resistant (R); intermediate (I); susceptible (S)
S. aureus = assay: Bactericidal activity in water or broth, CFU after 30 minutes and 3 hours (Example 3)
Protocol: (§1) The bactericidal activity of therapeutic compositions comprising BPI protein product and heat-treated PLURONIC P103 or heat-treated PLURONIC P104, was evaluated against the S. aureus and A. baumannii clinical isolates of Example 1 and the additional organisms S. pneunoniae (Microscan® ID no. 145) and E. faecium (Microscan® ID no. 15773). Therapeutic compositions comprising 500 μg/mL rBPI21 in a 0.075% (w/v) concentration of either heat-treated PLURONIC P103 or heat-treated PLURONIC P104 were formulated by diluting a 2 mg/mL solution of “non-formulated” rBPI21 or “formulated” rBPI21, with the appropriate amounts of 0.1% heat-treated PLURONIC P103 or heat-treated PLURONIC P104 solutions. Compositions comprising 500 μg/mL non-formulated rBPI21 in water alone (without any poloxamers) and poloxamer control solutions containing only 0.1% heat-treated P103 or heat-treated P104 (and no rBPI21) were also prepared A “formulated” rBPI23 therapeutic composition containing 1 mg/mL rBPI23, 0.1% PLURONIC F68 and 0.002% TWEEN 80 was also tested for comparison.
(§2) Sterile stock solutions of heat-treated PLURONIC P103 or heat-treated PLURONIC P104 were prepared using the following procedure: (1) making a 0.1% (w/v) solution of the poloxamer in deionized water, (2) heating the solution to a boil, (3) allowing it to cool to room temperature, (4) stirring until the PLURONIC P103 was completely solubilized, and (5) filtering the solution through a 0.22 μm Nalgene filter for sterilization.
(§3) The S. aureus, E. faecium and A. baumannii bacteria were grown on TSA plates (Remel, Catalog #01-920, Lenexa, Kans.), and the S. pneumoniae were grown on 5% sheep blood agar plates (Remel, Catalog# 01-200, Lenexa, Kans.) for 24 hours. A bacterial stock emulsion was prepared by emulsifying bacterial colonies in sterile deionized water to approximately 2.2 to 3.8×10^8 CFU/mL as measured by a Microscan® Turbidity Meter, and diluting further by 1:10 in water. Assays for rBPI21 therapeutic compositions were conducted in 96-well flat-bottom microtiter plates (Corning, catalog# 25860-96) by adding to each well: 185 μL of TSB (Remel, catalog #08-942, Lenexa, Kans.) or sterile water for injection (Kendall McGaw); 8 μL of the bacterial emulsion; 6.3 μL of the indicated 500 μg/mL rBPI21/poloxamer therapeutic composition (or poloxamer control solution or water alone). The final concentrations of bacteria in each well were about 4 to 7×10^5 CFU/mL. Assays for the rBPI23 therapeutic composition were conducted in the same way, except 178 μL of broth or water and 13 μL of the […] rBPI23 composition were added. The well contents were mixed and the plates were incubated at 37° C. The CFUs in each well were counted at 10^−2 and 10^−4 dilutions after 30 minutes and 3 hours of incubation. Results at 30 minutes and 3 hours, respectively, are shown below in Tables 8 and 9.

[1] = tested on: E. faecium (Microscan® ID no. 15773); assay: as above
Protocol: as §1, §2, §3

[2] = tested on: A. baumannii (formerly A. anitratus); assay: as above
Protocol: as §1, §2, §3

[3] = CSMHB, 16 μg/mL rBPI21 with F68
[4] = CSMHB, 16 μg/mL rBPI21 with P103
[5] = CSMHB, 16 μg/mL rBPI21 with P104
[6] = CSMHB, 16 μg/mL rBPI21 with P105
[7] = CSMHB, 16 μg/mL rBPI21 with P123
[8] = Serum, 16 μg/mL rBPI21 with F68
[9] = Serum, 16 μg/mL rBPI21 with P103
[10] = Serum, 16 μg/mL rBPI21 with P104
[11] = Serum, 16 μg/mL rBPI21 with P105
[12] = Serum, 16 μg/mL rBPI21 with P123
[13] = broth, Incubation for 30 minutes, Control TNTC / TNTC
[14] = broth, Incubation for 3 hours, Control TNTC
[15] = water, Incubation for 30 minutes, Control TNTC / TNTC
[16] = water, Incubation for 3 hours, Control TNTC

## O=C(N[C@H](CO)[C@H](O)c1ccc([N+](=O)[O-])cc1)C(Cl)Cl [Chloramphenicol]
E. faecium; [3]
  susceptibility interpretation of MIC (superscript): S
  MIC: < 4 µg/mL
E. faecium; [4]
  susceptibility interpretation of MIC (superscript): S
  MIC: < 4 µg/mL
E. faecium; [5]
  susceptibility interpretation of MIC (superscript): S
  MIC: < 4 µg/mL
E. faecium; [6]
  susceptibility interpretation of MIC (superscript): S
  MIC: < 4 µg/mL
E. faecium; [7]
  susceptibility interpretation of MIC (superscript): S
  MIC: < 4 µg/mL
E. faecium; CSMHB, Control (no BPI)
  susceptibility interpretation of MIC (superscript): I
  MIC: 16 µg/mL (≈ 49.5 µM)
E. faecium; [8]
  MIC: 8 µg/mL (≈ 24.8 µM)
  susceptibility interpretation of MIC (superscript): S
E. faecium; [9]
  MIC: 8 µg/mL (≈ 24.8 µM)
  susceptibility interpretation of MIC (superscript): S
E. faecium; [10]
  MIC: 8 µg/mL (≈ 24.8 µM)
  susceptibility interpretation of MIC (superscript): S
E. faecium; [11]
  MIC: 8 µg/mL (≈ 24.8 µM)
  susceptibility interpretation of MIC (superscript): S
E. faecium; [12]
  MIC: 8 µg/mL (≈ 24.8 µM)
  susceptibility interpretation of MIC (superscript): S
E. faecium; Serum, Control (no BPI)
  MIC: 8 µg/mL (≈ 24.8 µM)
  susceptibility interpretation of MIC (superscript): S

B1: rBPI21: expression product of DNA encoding amino acid 1 to approximately 193 or 199 of BPI holoprotein, cysteine 132 substituted with alanine (protein, UniProt P17213 32-224, looked up, variant C132A)
chain: VNPGVVVRISQKGLDYASQQGTAALQKELKRIKIPDYSDSFKIKHLGKGHYSFYSMDIREFQLPSSQISMVPNVGLKFSISNANIKISGKWKAQKRFLKMSGNFDLSIEGMSISADLKLGSNPTSGKPTITASSCSSHINSVHVHISKSKVGWLIQLFHKKIESALRNKMNSQVCEKVTNSVSSELQPYFQTL
S. aureus; broth, Incubation for 30 minutes, Control 65 / 59
  CFUs: 57 10000 CFUs
S. aureus; [13]
  CFUs: TNTC
S. aureus; [14]
  CFUs: TNTC
S. aureus; water, Incubation for 30 minutes, Control 54 / 63
  CFUs: 2 10000 CFUs
S. aureus; [15]
  CFUs: 315 100 CFUs
S. aureus; [16]
  CFUs: 12 100 CFUs
[1]; broth, Incubation for 30 minutes, Control 68 / 38
  CFUs: 89 10000 CFUs
[1]; [13]
  CFUs: TNTC
[1]; [14]
  CFUs: TNTC
[1]; water, Incubation for 30 minutes, Control 37 / 35
  CFUs: 1 10000 CFUs
[1]; [15]
  CFUs: 50 100 CFUs
[1]; [16]
  CFUs: 1 100 CFUs
[2]; A. anitratus, broth, Incubation for 30 minutes, Control 44 / 41
  CFUs: 24 10000 CFUs
[2]; A. anitratus, broth, Incubation for 30 minutes, Control TNTC / TNTC
  CFUs: TNTC
[2]; A. anitratus, water, Incubation for 30 minutes, Control 16 / 17
  CFUs: 0 10000 CFUs
[2]; A. anitratus, water, Incubation for 30 minutes, Control TNTC / TNTC
  CFUs: 73 100 CFUs
[2]; [14]
  CFUs: 58 100 CFUs
[2]; [16]
  CFUs: 0 100 CFUs
